According to patent publication US20120220535A1, “CYCLIC-GLUR6 ANALOGS, METHODS OF TREATMENT AND USE” (priority 2009, published 2012):
Entries after “also recorded” stand apart in the source; their conditions may differ.

How the values were obtained:
[1] = tested on: ischemic episode; assay: Therapeutic protocol in stroke (Example 2); format: in vivo, human; conditions: 50 mg/Kg i.v. within 2 hours of onset; outcome within 48 hours; person
Experimental: A person presents with an ischemic episode resulting sudden numbness the face, and left arm, confusion, and trouble speaking. […] Doses of from about 1 to about 100 mg/Kg are noted.

[2] = Uptake in the retina after intravitreal injection of fluorescently tagged compound; format: in vivo
Text: Uptake in the retina was observed as follows. […] In numerous populations of retinal neurons located in both the ganglion cell (GCL) and inner nuclear layers.

[3] = tested on: acute slices of rat retinal and brain tissue; assay: Multi-electrode array electrophysiological screen for neuroprotection against kainate- or NMDA-induced death; format: cell-based; conditions: 30 uM; pretreatment, or cotreatment with an NMDA receptor agonist; slices perfused about 30 min with NMDA or kainate agonists
Text: One aspect of the present invention usefully employs electrophysiological screening of Structure 1. Particular attention is drawn to an electrophysiological assay that rapidly screens for compounds which are inhibitors that target neuron-specific PDZ domains. Recordings of cellular activity were made from acute slices of rat retinal and brain tissue to examine the effects of Structure 1 on synaptic Kainate/AMPA, NMDARs and to test for protection against excitotoxic insults. Kainate/AMPA and NMDAR components were distinguished pharmacologically. Noted are the selective AMPA-antagonist NBQX and the competitive NMDA-antagonist CPP. A multi-electrode array was used that enabled examination of activity from sixty neurons simultaneously. This array addressed whether a test compound provided neuroprotection against kainate or N-methyl-D-aspartic acid (NMDA)-induced death. Briefly, slices were perfused for prolonged periods (about 30 min) with NMDA or kainate agonists until activity in half of the neurons is lost and responses cannot be rescued by washing out the NMDA or kainate (assumed to be resulting from neuronal death).

[4] = tested on: hippocampal neurons; assay: Excitotoxic insult in hippocampal neurons (loss of functional activity); format: cell-based; conditions: co-application with excitotoxic insult
Text: This loss was prevented by the co-application of the compound of Structure 1. Results were confirmatory of the retinal data and extends it into tissues that are more strongly associated with CNS disorders such as Stroke and neurodegenerative diseases. Noted is therapeutic treatment for autism disorders and cognitive decline symptomatology conditions.

[5] = Intrathecal injection in rats, distribution in spinal cord and brain; format: in vivo
Experimental: Intrathecal injection of Structure 1 compound in rats was tested. Rats were prepped for intrathecal injection containing 16 nmol of Structure 1 compound at the level of CV2. 24 hrs following the injection the rats were perfused with 4% PFA and frozen cross-sections of the cord were mounted on glass slides and photographed.

[6] = rats, 16 nmol intrathecal at CV2, 24 hrs after injection

Q: Which “patient outcome after ischemic episode” value [1] does the source give for “CONH2-(Arg)7-Cys-Cys-Lys-Asn-Tyr-Lys-c[-Lys-Thr-Glu(βAla)Val [Structure 1]” here?
A: Its value is “recovers without significant brain damage”.

Q: What about the “uptake pattern in retina” value ([2]; 1.5-6 nmol, 6 hrs following intravitreal injection) of the same substance?
A: Its value is roughly 50%.

Q: What about the “accumulation within ganglion cell axons” value ([2]; intravitreal injection, labeling at the optic nerve head) of the same substance?
A: The value was “selectively accumulated within ganglion cell axons”.

Q: And the “crossing of vitreal/retina barrier” value ([2]; tagged with a fluorescent marker, administered intravitrealy)?
A: The value was “crossed the vitreal/retina barrier”.

Q: What about the “prevention of neuronal death / cell death” value [3] of the same substance?
A: Its value is “provided efficacy and potency in preventing neuronal death; also recorded: prevented cell death”.

Q: What about the “permanent loss of functional activity after excitotoxic insult” value [4] of the same substance?
A: The value was “prevented”.

Q: And the “accumulation in brain regions after cervical intrathecal injection” value [5, 6]?
A: The value was “accumulate in cells located in the cortex, hippocampus, brainstem and striatum”.

Q: What about the “crossing of pia mater/brain barrier and accumulation in spinal cord neurons” value [5, 6] of the same substance?
A: The value was “crosses the pia mater/brain barrier and selectively accumulates in neurons located within the gray matter of the cord”.

Q: And the “crossing of pia mater/brain barrier” value ([5]; tagged with a fluorescent marker, localizes in neurons within retina, spinal cord and brain)?
A: The value was “readily cross the pia mater/brain barrier”.
